Usually IC50 stands for the midpoint of a concentration-inhibition curve.

For one test, the system named is ATF4. The test is described as follows: ATF4 expression inhibition assay (ATF4 luciferase reporter). The test is classed as cell-based. Particulars: Homo sapiens, HEK-293T; HEK293T cells carrying the ATF4 luciferase reporter, 100 nM thapsigargin (Tg), 3 hours; read-out: ATF4 inhbition IC50. The method, then:
The ATF4 reporter was prepared by fusing the human full length 5′UTR of ATF4 (NCBI Accession No. BC022088.2) upstream of the firefly luciferase coding sequence lacking the initiator methionine. The fused sequence was cloned into pLenti-EF1a-C-Myc-DDK-IRES-Puro cloning vector (Origen # PS 100085) using standard methods. Virus production was carried out by using Lenti-X™ Packaging Single Shots Protocol (Clonetech #631276). Viral particles were used to transduce HEK293T cells (ATCC # CRL-3216, ATCC Manassas, Va.), which were subsequently selected with puromycin to generate stable cell line. Cells were maintained at 37° C. and 5% CO2 in DMEM-F12 (Hyclone # SH30023.02) supplemented with 10% heat-inactivated fetal bovine serum (Gibco #16000-044), 2 mM L-glutamine (Gibco #25030-081), 100 U/ml penicillin, and 100 μg/ml streptomycin (Gibco #15140-122).
HEK293T cells carrying the ATF4 luciferase reporter were plated on 96-well plates (Nunc) at 10,000 cells per well. Cells were treated two days after seeding with 100 nM thapsigargin (Tg) (Sigma-Aldrich # T9033) in the presence of different concentrations of selected compounds ranging from 1 nM to 10 μM. Cells without treatment or cells treated with Tg alone were used as controls. Assay plates containing cells were incubated for 3 hours at 37° C.
Luciferase reactions were performed using Luciferase Assay System (Promega # E1501) as specified by the manufacturer. Luminescence was read with an integration time of 1 s and a gain of 110 using a Cytation-5 multi-mode microplate reader (BioTek). Relative luminescence units were normalized to Tg treatment (0% inhibition) and untreated cells (100% inhibition) and the percentage of ATF4 inhibition was calculated.
Accordingly, inhibition of ATF4 expression as a result of the test compound indicates suppression of the ISR pathway.

For test [1], the system named is Chinese hamster ovary (CHO) cells. The experiment in a line: Protein translation assay (puromycin labelling, western blot). The test is classed as cell-based. Particulars: 2 hours, media alone = 100%; for activity at 1 µM: Cricetulus griseus, unstressed CHO cells (without Tg), 1 μM test compound, read-out: % Protein synthesis relative to untreated (1 μM test compound); for % Recovery of protein synthesis (1 μM test compound): stressed CHO cells, 300 nM Tg, Tg alone = 0%. The method, then:
Chinese hamster ovary (CHO) cells were maintained at 37° C. and 5% C02 in Dulbecco's Modified Eagle's Media (DMEM) supplemented with 10% fetal bovine serum, 2 mM L-glutamine, 100 U/ml penicillin, and 100 μg/ml streptomycin. After reaching 80% of confluence, cells were detached and seeded on 6 well plates in complete media, allowed to recover overnight and treated for 2 hours with 1 μM of the test compound (to assess protein synthesis levels in unstressed condition), or for 2 hours with 300 nM Tg in the presence of 1 μM of the test compound (to assess the recovery of protein synthesis in a stressed condition). Cells with Tg alone were used as controls.
After the 2 hours treatments, media were replaced by adding 10 μg/ml puromycin (Sigma Aldrich # P8833) in complete media for 30 min. Media were removed and cells were lysed with SDS-PAGE lysis buffer. Lysates were transferred to 1.5 ml tubes and sonicated for 3 min and total protein amount were quantified using BCA Protein Assay Kit (Pierce). Equal amount of protein (30 μg) was loaded on SDS-PAGE gels. Proteins were transferred onto 0.2 μm PVDF membranes (BioRad) and probed with primary antibodies diluted in Tris-buffered saline supplemented with 0.1% Tween 20 (Merck # S6996184 505) and 3% bovine serum albumin (Rockland # BSA-50).
Puromycin (12D10) (Merck # MABE343) and β-actin (Sigma Aldrich # A5441) antibodies were used as primary antibody. A HRP-conjugated secondary antibody (Rockland) was employed to detect immune-reactive bands using enhanced chemiluminescence (ECL Western Blotting Substrate, Pierce). Quantification of protein bands was done by densitometry using ImageJ software.
Percent increase of protein synthesis in unstressed cells (without Tg treatment) in the presence of media alone or certain test compounds is shown in Table 3. The percentage levels were normalized to the media alone condition, which correspond to 100% protein synthesis.
Percent recovery of protein synthesis in stressed cells (with Tg treatment) due to the test compounds at 1 μM is also shown in Table 3. The levels were normalized to the media alone and Tg alone conditions, which correspond to 100% and 0% respectively.
On the technique in general: Immunoblotting shows a protein as a band on a membrane.

As to `O=C(COc1ccc(Cl)c(F)c1)N[C@H]1CC[C@H](NC(=O)COc2ccc(Cl)c(F)c2)C1` [Compound 1, N,N′-((1S,3S)-cyclopentane-1,3-diyl)bis(2-(4-chloro-3-fluorophenoxy)acetamide)], the IC50 in the test on ATF4 was found to be 856 nM. Also, in test [1], the activity at 1 µM was determined as 46.9%.

As for `O=C(COc1ccc(Cl)c(F)c1)N[C@H]1CC[C@@H](NCC(O)COc2ccc(Cl)c(F)c2)C1` (stereo partly drawn) [Compound 2, 2-(4-chloro-3-fluorophenoxy)-N-((1S,3R)-3-((3-(4-chloro-3-fluorophenoxy)-2-hydroxypropyl)amino)cyclopentyl)acetamide], in the test on ATF4, the IC50 is greater than 1000 nM. For the same molecule, in test [1], the activity at 1 µM was 84.7% and the “% Recovery of protein synthesis (1 μM test compound)” value (“% Recovery of protein synthesis” for short) was 28.2%.

For `O=C(N[C@H]1CC[C@@H](NCC(O)COc2ccc(Cl)c(F)c2)C1)c1ccc2cc(Cl)ccc2n1` (stereo partly drawn) [Compound 3, 6-chloro-N-((1S,3R)-3-((3-(4-chloro-3-fluorophenoxy)-2-hydroxypropyl)amino)cyclopentyl)quinoline-2-carboxamide], in the test on ATF4, the IC50 came out at 249 nM. Besides, in test [1], the activity at 1 µM came to 176% and the “% Recovery of protein synthesis” value is 286%.

On to `O=C(COc1ccc(Cl)c(F)c1)NCC1CCN(C(=O)COc2ccc(Cl)c(F)c2)C1` (stereo not shown) [Compound 4, 2-(4-chloro-3-fluorophenoxy)-N-((1-(2-(4-chloro-3-fluorophenoxy)acetyl)pyrrolidin-3-yl)methyl)acetamide], for which the IC50 in the test on ATF4 is greater than 100 nM. For the same molecule, the activity at 1 µM in test [1] stood at 76.1%.

As for `O=C(COc1ccc(Cl)c(F)c1)NCC1CCN(C(=O)c2ccc3cc(Cl)ccc3n2)C1` (stereo not shown) [Compound 5, 2-(4-chloro-3-fluorophenoxy)-N-((1-(6-chloroquinoline-2-carbonyl)pyrrolidin-3-yl)methyl)acetamide], the half-inhibitory concentration (IC50) in the test on ATF4 is greater than 100 nM. Further, in test [1], the activity at 1 µM worked out at 94.2% and the “% Recovery of protein synthesis” value turned out to be 0.00%.

In the case of `O=C(COc1ccc(Cl)c(F)c1)NCC1CCN(C(=O)c2cc3cc(Cl)ccc3o2)C1` (stereo not shown) [Compound 6, 2-(4-chloro-3-fluorophenoxy)-N-((1-(5-chlorobenzofuran-2-carbonyl)pyrrolidin-3-yl)methyl)acetamide], the IC50 in the test on ATF4 is greater than 100 nM. Also, in test [1], the activity at 1 µM was 81.2% and the “% Recovery of protein synthesis” value was determined as 0.00%.

`O=C(COc1ccc(Cl)c(F)c1)NCC1CCN(CC(O)COc2ccc(Cl)c(F)c2)C1` (stereo not shown) [Compound 7, 2-(4-chloro-3-fluorophenoxy)-N-((1-(3-(4-chloro-3-fluorophenoxy)-2-hydroxypropyl)pyrrolidin-3-yl)methyl)acetamide]: the IC50 in the test on ATF4 is greater than 100 nM. In test [1], the activity at 1 µM amounted to 122%.

On to `O=C(NCC1CCN(CC(O)COc2ccc(Cl)c(F)c2)C1)c1cc2cc(Cl)ccc2o1` (stereo not shown) [Compound 8, 5-chloro-N-((1-(3-(4-chloro-3-fluorophenoxy)-2-hydroxypropyl)pyrrolidin-3-yl)methyl)benzofuran-2-carboxamide], for which the IC50 in the test with ATF4 is greater than 1000 nM. For the same molecule, in test [1], the activity at 1 µM came to 107% and the “% Recovery of protein synthesis” value is reported as 31.57%.

Turning to `O=C(COc1ccc(Cl)c(F)c1)NCC1CCN(NC(=O)c2cc3cc(Cl)ccc3o2)C1` (stereo not shown) [Compound 12, 5-chloro-N-(3-((2-(4-chloro-3-fluorophenoxy)acetamido)methyl)pyrrolidin-1-yl)benzofuran-2-carboxamide], the IC50 in the test on ATF4 worked out at 3.58 nM. In test [1], the activity at 1 µM was determined as 97.7% and the “% Recovery of protein synthesis” value was 13%.

`O=C(N[C@H]1CC[C@H](NCC(O)COc2ccc(Cl)c(F)c2)C1)c1ccc2cc(Cl)ccc2n1` (stereo partly drawn) [Compound 13, 6-chloro-N-((1S,3S)-3-((3-(4-chloro-3-fluorophenoxy)-2-hydroxypropyl)amino)cyclopentyl)quinoline-2-carboxamide]: in the test with ATF4, the IC50 was greater than 100 nM. In test [1], the activity at 1 µM came to 288% and the “% Recovery of protein synthesis” value was determined as 161.6%.

`O=C(COc1ccc(Cl)c(F)c1)N[C@H]1CC[C@H](NC(=O)c2cc3cc(Cl)ccc3o2)C1` [Compound 14, 5-chloro-N-((1S,3S)-3-(2-(4-chloro-3-fluorophenoxy)acetamido)cyclopentyl)benzofuran-2-carboxamide]: the IC50 with ATF4 came out at 217 nM. Besides, the activity at 1 µM in test [1] worked out at 65.9%.

As to `O=C(COc1ccc(Cl)c(F)c1)N[C@@H]1CC[C@H](NC(=O)COc2ccc(Cl)c(F)c2)C1` [Compound 15, N,N′-((1R,3S)-cyclopentane-1,3-diyl)bis(2-(4-chloro-3-fluorophenoxy)acetamide)], in the test on ATF4, the IC50 was greater than 100 nM. In addition, in test [1], the activity at 1 µM stood at 110%.

Consider `O=C(COc1ccc(Cl)c(F)c1)N[C@H]1CC[C@H](NC(=O)c2ccc3cc(Cl)ccc3n2)C1` [Compound 16, 6-chloro-N-((1S,3S)-3-(2-(4-chloro-3-fluorophenoxy)acetamido)cyclopentyl)quinoline-2-carboxamide], for which the IC50 in the test with ATF4 stood at 134 nM. The activity at 1 µM in test [1] came out at 95.4%.

For `O=C(COc1ccc(Cl)c(F)c1)N[C@@H]1CC[C@H](NC(=O)c2cc3cc(Cl)ccc3o2)C1` [Compound 17, 5-chloro-N-((1S,3R)-3-(2-(4-chloro-3-fluorophenoxy)acetamido)cyclopentyl)benzofuran-2-carboxamide], the IC50 in the test on ATF4 stood at 102 nM. Also, in test [1], the activity at 1 µM turned out to be 78.4% and the “% Recovery of protein synthesis” value was found to be 22%.

Turning to `O=C(N[C@H]1CC[C@H](NCC(O)COc2ccc(Cl)c(F)c2)C1)c1cc2cc(Cl)ccc2o1` (stereo partly drawn) [Compound 18, 5-chloro-N-((1S,3S)-3-((3-(4-chloro-3-fluorophenoxy)-2-hydroxypropyl)amino)cyclopentyl)benzofuran-2-carboxamide], in the test with ATF4, the IC50 was found to be 178 nM. Moreover, the activity at 1 µM in test [1] is 158%.

As for `O=C(COc1ccc(Cl)c(F)c1)N[C@@H]1CC[C@H](NC(=O)c2ccc3cc(Cl)ccc3n2)C1` [Compound 19, 6-chloro-N-((1S,3R)-3-(2-(4-chloro-3-fluorophenoxy)acetamido)cyclopentyl)quinoline-2-carboxamide], the IC50 in the test on ATF4 is greater than 100 nM. The activity at 1 µM in test [1] amounted to 76.1%.

Take `O=C(COc1ccc(Cl)c(F)c1)N[C@H]1CC[C@H](NCC(O)COc2ccc(Cl)c(F)c2)C1` (stereo partly drawn) [Compound 20, 2-(4-chloro-3-fluorophenoxy)-N-((1S,3S)-3-((3-(4-chloro-3-fluorophenoxy)-2-hydroxypropyl)amino)cyclopentyl)acetamide]: the IC50 with ATF4 is greater than 100 nM. Besides, in test [1], the activity at 1 µM worked out at 123% and the “% Recovery of protein synthesis” value is 52.5%.

`O=C(N[C@H]1CC[C@@H](NCC(O)COc2ccc(Cl)c(F)c2)C1)c1cc2cc(Cl)ccc2o1` (stereo partly drawn) [Compound 21, 5-chloro-N-((1S,3R)-3-((3-(4-chloro-3-fluorophenoxy)-2-hydroxypropyl)amino)cyclopentyl)benzofuran-2-carboxamide]: the IC50 in the test with ATF4 is greater than 1000 nM. In addition, in test [1], the activity at 1 µM came to 141% and the “% Recovery of protein synthesis” value was 54.6%.

For the origin of these results see patent US20200270232A1, “INHIBITORS OF INTEGRATED STRESS RESPONSE PATHWAY” (Praxis Biotech LLC, priority 2019, published 2020).
